Here are results for 4 compounds from US20030176475A1, “Therapeutically useful new salts of cck inhibitors, process for the preparation thereof and pharmaceutical preparations containing them” (priority 2000, published 2003).

A short description of series [1]: Hygroscopicity and chemical stability of the salts. In kind it is physicochemical. From the text:
The mono- and di-sodium salts, as well as the mono- and di-potassium salts and their hydrates are highly hygroscopic and chemically not stable compounds namely the compound of the formula (II) decomposes at the amide bond giving rise to decomposition products of formulae (IV) (FIG. 6) and (V) (FIG. 7).

The target in series [2] is T1, cholecystokinin A (CCK-A) (Rattus norvegicus, UniProt P30551).
T1 construct: from tissue; host or cells: living rat (in vivo, oral dosing; gastric emptying)
T1 sequence (P30551 1-444): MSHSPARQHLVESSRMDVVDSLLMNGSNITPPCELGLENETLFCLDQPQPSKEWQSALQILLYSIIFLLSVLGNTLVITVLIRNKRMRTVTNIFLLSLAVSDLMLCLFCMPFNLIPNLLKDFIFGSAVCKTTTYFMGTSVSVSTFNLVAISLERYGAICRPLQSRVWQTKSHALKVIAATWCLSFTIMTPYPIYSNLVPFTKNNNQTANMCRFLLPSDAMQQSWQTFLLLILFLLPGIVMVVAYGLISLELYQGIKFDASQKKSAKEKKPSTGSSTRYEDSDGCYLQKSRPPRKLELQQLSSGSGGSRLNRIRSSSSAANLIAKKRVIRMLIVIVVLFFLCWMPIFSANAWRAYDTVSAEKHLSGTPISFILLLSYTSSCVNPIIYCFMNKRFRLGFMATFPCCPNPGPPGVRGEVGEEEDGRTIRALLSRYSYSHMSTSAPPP
Conditions: comparison in words; cited from earlier work.

The melting point is the temperature of the solid-liquid transition. Consider `CCNCC.COc1cc(-c2nc(NC(=O)c3cc4cc(C)cc(C)c4n3CC(=O)O)sc2CCC2CCCCC2)c(OC)cc1Cl`, for which the melting point fell in the range of 209.4 to 210.7 °C.
In turn, `COc1cc(-c2nc(NC(=O)c3cc4cc(C)cc(C)c4n3CC(=O)O)sc2CCC2CCCCC2)c(OC)cc1Cl.NCCO.O` (hydrate or solvate) returned a melting point of 166 to 167 °C.
As to `COc1cc(-c2nc(NC(=O)c3cc4cc(C)cc(C)c4n3CC(=O)O)sc2CCC2CCCCC2)c(OC)cc1Cl.NCCO` [ethanolamine salt, 2-[[[4-(4-chloro-2,5-dimethoxyphenyl)-5-(2-cyclohexylethyl)-2-thiazolyl]amino]carbonyl]-5,7-dimethyl-1H-indol-1-acetic Acid Ethanolamine Salt], the melting point lay within 208 to 210 °C. For the same compound, the hygroscopicity entry in series [1] is recorded as “non-hygroscopic”. The chemical stability result in series [1] (decomposition at the amide bond to products of formulae (IV) and (V)) is given as “chemically stable”.
With `Nc1cc(Cl)nc(C(=O)[O-])c1Cl.[K+]` [potassium salt], the “ED50 of prior salts compared with the 34 μg/kg p.o. of the compound of the invention” value in series [2] is listed as “in the same order”.
